Key:
[1] = target: beta-galactosidase (Escherichia coli, UniProt P00722); experiment: droplet microfluidic steady-state Michaelis–Menten kinetics; format: biochemical
[2] = substrate: CC(=O)N1c2ccc(O)cc2Oc2cc(O)ccc21; experiment: purified protein; conditions: H2O2 (co-substrate)

Sequence of beta-galactosidase (P00722 2-1024): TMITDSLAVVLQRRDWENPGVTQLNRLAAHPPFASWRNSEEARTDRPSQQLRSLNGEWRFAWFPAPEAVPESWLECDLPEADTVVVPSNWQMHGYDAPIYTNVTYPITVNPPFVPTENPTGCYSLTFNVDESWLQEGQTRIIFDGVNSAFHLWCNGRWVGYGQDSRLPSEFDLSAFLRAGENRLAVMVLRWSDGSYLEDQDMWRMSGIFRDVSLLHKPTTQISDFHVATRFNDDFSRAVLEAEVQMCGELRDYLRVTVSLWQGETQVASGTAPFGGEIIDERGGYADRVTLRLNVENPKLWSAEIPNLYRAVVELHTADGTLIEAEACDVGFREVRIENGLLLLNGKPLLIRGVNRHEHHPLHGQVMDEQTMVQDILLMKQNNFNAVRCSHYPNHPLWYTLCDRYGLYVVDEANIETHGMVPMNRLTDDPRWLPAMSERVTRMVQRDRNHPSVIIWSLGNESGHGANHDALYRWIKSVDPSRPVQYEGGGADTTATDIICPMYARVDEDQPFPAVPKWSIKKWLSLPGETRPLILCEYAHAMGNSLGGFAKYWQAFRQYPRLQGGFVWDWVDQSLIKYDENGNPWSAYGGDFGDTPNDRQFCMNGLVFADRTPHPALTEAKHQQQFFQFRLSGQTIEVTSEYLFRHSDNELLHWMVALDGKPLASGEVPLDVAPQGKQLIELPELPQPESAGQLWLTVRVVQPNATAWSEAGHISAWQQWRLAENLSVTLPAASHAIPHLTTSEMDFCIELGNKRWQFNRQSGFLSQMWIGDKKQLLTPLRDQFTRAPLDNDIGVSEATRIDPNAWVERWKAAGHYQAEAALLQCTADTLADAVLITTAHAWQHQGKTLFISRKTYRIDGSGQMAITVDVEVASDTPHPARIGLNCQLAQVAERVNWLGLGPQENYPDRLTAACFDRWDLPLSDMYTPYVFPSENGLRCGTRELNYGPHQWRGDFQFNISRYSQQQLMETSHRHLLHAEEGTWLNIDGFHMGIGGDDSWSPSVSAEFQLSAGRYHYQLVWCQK

Row | Molecule | Km [1] | Km [2]
1 | O=C1OC2(c3ccc(O[C@@H]4O[C@H](CO)[C@H](O)[C@H](O)[C@H]4O)cc3Oc3cc(O[C@@H]4O[C@H](CO)[C@H](O)[C@H](O)[C@H]4O)ccc32)c2ccccc21 [Fluorescein di-beta-D-galactopyranoside] | 19.8 ± 1.4 µM | –
2 | O=c1ccc2nc3ccc(O[C@@H]4O[C@H](CO)[C@H](O)[C@H](O)[C@H]4O)cc3oc-2c1 [resorufin beta-D-galactopyranoside] | 408 ± 140 µM | –
3 | horseradish peroxidase (Armoracia rusticana) (protein) QLTPTFYDNSCPNVSNIVRDTIVNELRSDPRIAASILRLHFHDCFVNGCDASILLDNTTSFRTEKDAFGNANSARGFPVIDRMKAAVESACPRTVSCADLLTIAAQQSVTLAGGPSWRVPLGRRDSLQAFLDLANANLPAPFFTLPQLKDSFRNVGLNRSSDLVALSGGHTFGKNQCRFIMDRLYNFSNTGLPDPTLNTTYLQTLRGLCPLNGNLSALVDFDLRTPTIFDNKYYVNLEEQKGLIQSDQELFSSPNATDTIPLVRSFANSTQTFFNAFVEAMDRMGNITPLTGTQGQIRLNCRVVNSNS | – | 20 ± 1.8 µM
